Assay results as given in patent US20170037125A1, “COMBINATION OF A PD-1 ANTAGONIST AND AN IDO1 INHIBITOR FOR TREATING CANCER” (INCYTE CORPORATION, priority 2014, published 2017).
Marks after values point to notes of the source that are not given here.

Key:
[1] = tested on: selected advanced or metastatic solid tumors; assay: Phase 1 dose-escalation clinical study of INCB024360 in combination with MK-3475: tumor response (modified RECIST v1.1); assay type: in vivo, human; conditions: for CR, patients / NE (not evaluable), patients / PD, patients / PR, patients: preliminary
Experimental: Phase 1 of the study is a dose-escalation phase and Phase 2 is randomized, double-blind, and placebo-controlled. Phase 1 of the study is conducted in subjects with selected advanced or metastatic solid tumors. Phase 2 of the study is conducted in subjects with advanced NSCLC, e.g., Stage IIIB, IV, or recurrent NSCLC. […] The Phase 1 dose-escalation phase includes cohorts of subjects treated with INCB024360 twice daily (BID) at initial doses of 25 mg BID, 50 mg BID, and 100 mg BID in combination with MK-3475 at 2 mg/kg every 3 weeks. One treatment cycle consists of 21 days. A minimum of 3 subjects are enrolled and treated in each cohort, and all 3 subjects are observed for a minimum of 42 days (6 weeks) before the subsequent cohort begins enrollment. […] The study subject cohorts are summarized as follows: For treatment, INCB024360 is self-administered orally BID and continued BID during the 21-day cycle for an every-3-week dose schedule of MK-3475. The MTD of INCB024360 (or PAD) defined during Phase 1 is used for Phase 2. All BID doses are taken morning and evening, approximately 12 hours apart without respect to food. If a dose is missed by more than 4 hours, that dose is skipped and is resumed at the scheduled time. […] Study subject participation averages about 6 months. The Study Schedule and Procedures for the Phase 1/2 study are as follows: […] Liver function test monitoring occurs weekly during the first 6 weeks of study treatment during Phase 1 and then is tested every 3 weeks thereafter and in Phase 2 for subjects who remain on study treatment. Assessment of tumor size (by magnetic resonance imaging or computed tomography scan) is performed at screening or baseline (before beginning therapy), every 9 weeks for 18 months, and then every 12 weeks thereafter until disease progression. Disease progression is defined as progression confirmed by a second, consecutive assessment at least 4 weeks apart with the option for continuing treatment while awaiting radiologic confirmation of progression where feasible, and where subjects are clinically stable, defined as the following: absence of signs and symptoms (including worsening of laboratory values) indicating disease progression, no decline in ECOG performance status, absence of rapid progression of disease, and absence of progressive tumors at critical anatomical sites (e.g., cord compression) requiring urgent alternative medical intervention. […] In accordance with the protocol, INCB024360 was administered in combination with MK-3475. MK-3475 was intravenously administered at a dose of 2 mg/kg as described.

[2] = Phase 1 dose-escalation clinical study of INCB024360 in combination with MK-3475: adverse events; assay type: in vivo
Experimental: This Example describes an ongoing Phase 1/2 clinical study to evaluate the safety, tolerability and efficacy of the inventive combination of MK-3475 and INCB024360 in subjects presenting with various solid tumors and advanced non-small cell lung cancer (NSCLC). Phase 1 of the study is a dose-escalation phase and Phase 2 is randomized, double-blind, and placebo-controlled. Phase 1 of the study is conducted in subjects with selected advanced or metastatic solid tumors. Phase 2 of the study is conducted in subjects with advanced NSCLC, e.g., Stage IIIB, IV, or recurrent NSCLC. The dose-escalation phase (Phase 1) is open-label and is designed to identify the maximum tolerated dose (MTD) or pharmacologically acceptable doses (PAD) of INCB024360 in combination with MK-3475 in subjects with Stage IIIB, IV, or recurrent NSCLC, melanoma, transitional cell carcinoma of the genitourinary (GU) tract, renal cell cancer, triple negative breast cancer, adenocarcinoma of the endometrium or squamous cell carcinoma of the head and neck who have disease progression on at least 1 line of therapy for advanced or metastatic cancer.
The Phase 1 dose-escalation phase includes cohorts of subjects treated with INCB024360 twice daily (BID) at initial doses of 25 mg BID, 50 mg BID, and 100 mg BID in combination with MK-3475 at 2 mg/kg every 3 weeks. One treatment cycle consists of 21 days. A minimum of 3 subjects are enrolled and treated in each cohort, and all 3 subjects are observed for a minimum of 42 days (6 weeks) before the subsequent cohort begins enrollment. Additional subjects are enrolled in a cohort to achieve the minimum of 3 evaluable subjects if dropouts or dose interruptions or reductions occur that result in a subject being nonevaluable for dose limiting toxicities (DLTs). When the MTD or PAD is reached, additional subjects are enrolled for a total of 9 subjects, but the additional subjects are treated with MK-3475 at 200 mg every 3 weeks and the MTD or PAD of INCB024360 to further evaluate safety and confirm it as the recommended Phase 2 dose (RP2D). The study subject cohorts are summarized as follows:
For treatment, INCB024360 is self-administered orally BID and continued BID during the 21-day cycle for an every-3-week dose schedule of MK-3475. The MTD of INCB024360 (or PAD) defined during Phase 1 is used for Phase 2. All BID doses are taken morning and evening, approximately 12 hours apart without respect to food. If a dose is missed by more than 4 hours, that dose is skipped and is resumed at the scheduled time. MK-3475 is administered at 2 mg/kg or 200 mg intravenously (IV) over a 30-minute period on Day 1 of an every-3-week cycle, with no intrasubject dose escalation. Study subject participation averages about 6 months.
Primary endpoints of the Phase 1 study are as follows: Safety and tolerability are assessed by monitoring frequency, duration and severity of AEs, through physical examinations, by evaluating changes in vital signs and electrocardiograms, and through clinical laboratory blood and urine sample evaluations. Primary endpoints of the Phase 2 study are as follows: Progression-free survival, defined as the time from randomization until the earliest date of disease progression, as determined by investigator assessment of objective radiographic disease assessments per modified RECIST v1.1, or death due to any cause, if occurring sooner than progression. Imaging is archived for possible retrospective central confirmation of disease progression and response.
Table 4 below presents preliminary data of adverse events (AEs), including immune-related AEs, reported in the described study.

[3] = biological target: human indoleamine 2,3-dioxygenasae (IDO) (Homo sapiens, UniProt P14902); conditions: human IDO enzyme assay; see U.S. Pat. No. 8,088,803; cited from earlier work
Sequence of human indoleamine 2,3-dioxygenasae (IDO) (P14902 whole entry): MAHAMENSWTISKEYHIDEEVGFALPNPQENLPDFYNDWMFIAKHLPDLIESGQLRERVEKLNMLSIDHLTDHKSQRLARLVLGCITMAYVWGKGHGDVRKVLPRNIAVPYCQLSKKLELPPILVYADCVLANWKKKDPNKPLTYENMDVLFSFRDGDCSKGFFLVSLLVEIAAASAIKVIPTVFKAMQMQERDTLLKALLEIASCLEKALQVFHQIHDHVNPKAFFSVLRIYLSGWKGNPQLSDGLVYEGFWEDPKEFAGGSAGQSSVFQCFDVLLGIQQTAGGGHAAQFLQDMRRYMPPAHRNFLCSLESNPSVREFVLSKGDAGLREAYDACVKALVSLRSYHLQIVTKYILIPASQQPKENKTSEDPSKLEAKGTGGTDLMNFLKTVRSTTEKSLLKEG

[4] = INCB024360 25 mg BID (n = 4) with MK-3475 2 mg/kg IV
[5] = INCB024360 50 mg BID (n = 4) with MK-3475 2 mg/kg IV
[6] = subjects evaluable for response, both cohorts, with MK-3475
[7] = Grade 3 or 4, 25 mg BID (n = 4)
[8] = Grade 3 or 4, 50 mg BID (n = 8)

NS(=O)(=O)NCCNc1nonc1C(=NO)Nc1ccc(F)c(Br)c1 [Compound 1, 4-({2-[(aminosulfonyl)amino]ethyl}amino)-N-(3-bromo-4-fluorophenyl)-N′-hydroxy-1,2,5-oxadiazole-3-carboximidamide]
response of a subject having melanoma (MEL) ([1]; 25 mg BID Cohort, stable, with MK-3475 2 mg/kg IV): stable disease (SD)
response of a subject having transitional cell carcinoma (TCC) in bladder ([1]; 25 mg BID Cohort, with MK-3475 2 mg/kg IV): partial response (PR)
response of a subject with melanoma (MEL) ([1]; 50 mg BID Cohort, first melanoma subject, with MK-3475 2 mg/kg IV): complete response (CR)
response of a subject with melanoma (MEL) ([1]; 50 mg BID cohort, further melanoma subject, with MK-3475 2 mg/kg IV): partial response (PR)
total best overall response (per modified RECIST v1.1) ([1]; 25 and 50 mg BID cohorts pooled, only subjects evaluable for response (5/7), with MK-3475): 71%
disease control rate ([1]; 25 and 50 mg BID cohorts pooled, only subjects evaluable for response (7/7), with MK-3475): 100%
CR, patients [1, 4]: 0 n (%)
NE (not evaluable), patients [1, 4]: 0 n (%)
PD, patients [1, 4]: 0 n (%)
PR, patients [1, 4]: 2 (50%) n (%)
CR, patients [1, 5]: 1 (33%) n (%)
NE (not evaluable), patients [1, 5]: 1** n (%)
PD, patients [1, 5]: 0 n (%)
PR, patients [1, 5]: 2 (67%) n (%)
Disease Control Rate (DCR) [1, 6]: 7/7
Objective response rate (ORR) [1, 6]: 4/7
Grade 3 rash related to dose limiting toxicity (DLT) ([2]; 50 mg BID cohort): one
Cough (AE) ([2]; All Grades, 25 mg BID (n = 4)): 2 n (%)
DVT (IJ) (AE; Deep Vein Thrombosis, Internal Jugular) ([2]; All Grades, 25 mg BID (n = 4)): 1 n (%)
Diarrhea (AE) ([2]; All Grades, 25 mg BID (n = 4)): 2 n (%)
Dyspnea (AE) ([2]; All Grades, 25 mg BID (n = 4)): 1 n (%)
Fall (AE) ([2]; All Grades, 25 mg BID (n = 4)): 0 n (%)
Fatigue (AE) ([2]; All Grades, 25 mg BID (n = 4)): 0 n (%)
Headache (AE) ([2]; All Grades, 25 mg BID (n = 4)): 1 n (%)
Mild Infusion Reaction (AE) ([2]; All Grades, 25 mg BID (n = 4)): 0 n (%)
Nausea (AE) ([2]; All Grades, 25 mg BID (n = 4)): 2 n (%)
Pruritis (AE) ([2]; All Grades, 25 mg BID (n = 4)): 1 n (%)
Rash (AE) ([2]; All Grades, 25 mg BID (n = 4)): 0 n (%)
Cough (AE) ([2]; All Grades, 50 mg BID (n = 8)): 0 n (%)
DVT (IJ) (AE; Deep Vein Thrombosis, Internal Jugular) ([2]; All Grades, 50 mg BID (n = 8)): 0 n (%)
Diarrhea (AE) ([2]; All Grades, 50 mg BID (n = 8)): 0 n (%)
Dyspnea (AE) ([2]; All Grades, 50 mg BID (n = 8)): 0 n (%)
Fall (AE) ([2]; All Grades, 50 mg BID (n = 8)): 1 n (%)
Fatigue (AE) ([2]; All Grades, 50 mg BID (n = 8)): 1 n (%)
Headache (AE) ([2]; All Grades, 50 mg BID (n = 8)): 0 n (%)
Mild Infusion Reaction (AE) ([2]; All Grades, 50 mg BID (n = 8)): 1 n (%)
Nausea (AE) ([2]; All Grades, 50 mg BID (n = 8)): 1 n (%)
Pruritis (AE) ([2]; All Grades, 50 mg BID (n = 8)): 0 n (%)
Rash (AE) ([2]; All Grades, 50 mg BID (n = 8)): 2 n (%)
Cough (AE) ([2]; All Grades, Total (N = 12)): 2 n (%)
DVT (IJ) (AE; Deep Vein Thrombosis, Internal Jugular) ([2]; All Grades, Total (N = 12)): 1 n (%)
Diarrhea (AE) ([2]; All Grades, Total (N = 12)): 2 n (%)
Dyspnea (AE) ([2]; All Grades, Total (N = 12)): 1 n (%)
Fall (AE) ([2]; All Grades, Total (N = 12)): 1 n (%)
Fatigue (AE) ([2]; All Grades, Total (N = 12)): 1 n (%)
Headache (AE) ([2]; All Grades, Total (N = 12)): 1 n (%)
Mild Infusion Reaction (AE) ([2]; All Grades, Total (N = 12)): 1 n (%)
Nausea (AE) ([2]; All Grades, Total (N = 12)): 3 n (%)
Pruritis (AE) ([2]; All Grades, Total (N = 12)): 1 n (%)
Rash (AE) ([2]; All Grades, Total (N = 12)): 2 n (%)
Cough (AE) [2, 7]: 0 n (%)
DVT (IJ) (AE; Deep Vein Thrombosis, Internal Jugular) [2, 7]: 0 n (%)
Dyspnea (AE) [2, 7]: 0 n (%)
Fall (AE) [2, 7]: 0 n (%)
Fatigue (AE) [2, 7]: 0 n (%)
Headache (AE) [2, 7]: 0 n (%)
Mild Infusion Reaction (AE) [2, 7]: 0 n (%)
Nausea (AE) [2, 7]: 0 n (%)
Pruritis (AE) [2, 7]: 0 n (%)
Rash (AE) [2, 7]: 0 n (%)
Cough (AE) [2, 8]: 0 n (%)
DVT (IJ) (AE; Deep Vein Thrombosis, Internal Jugular) [2, 8]: 0 n (%)
Dyspnea (AE) [2, 8]: 0 n (%)
Fatigue (AE) [2, 8]: 0 n (%)
Headache (AE) [2, 8]: 0 n (%)
Mild Infusion Reaction (AE) [2, 8]: 0 n (%)
Nausea (AE) [2, 8]: 0 n (%)
Pruritis (AE) [2, 8]: 0 n (%)
Rash (AE) [2, 8]: 1 n (%)
Fall (AE) ([2]; Grade 3 or 4, 50 mg BID (n = 8), not related to study treatment): 1 n (%)
Cough (AE) ([2]; Grade 3 or 4, Total (N = 12)): 0 n (%)
DVT (IJ) (AE; Deep Vein Thrombosis, Internal Jugular) ([2]; Grade 3 or 4, Total (N = 12)): 0 n (%)
Dyspnea (AE) ([2]; Grade 3 or 4, Total (N = 12)): 0 n (%)
Fall (AE) ([2]; Grade 3 or 4, Total (N = 12)): 1 n (%)
Fatigue (AE) ([2]; Grade 3 or 4, Total (N = 12)): 0 n (%)
Headache (AE) ([2]; Grade 3 or 4, Total (N = 12)): 0 n (%)
Mild Infusion Reaction (AE) ([2]; Grade 3 or 4, Total (N = 12)): 0 n (%)
Nausea (AE) ([2]; Grade 3 or 4, Total (N = 12)): 0 n (%)
Pruritis (AE) ([2]; Grade 3 or 4, Total (N = 12)): 0 n (%)
Rash (AE) ([2]; Grade 3 or 4, Total (N = 12)): 1 n (%)

NS(=O)(=O)NCCNc1nonc1C(=NO)Nc1ccc(F)c(C(F)(F)F)c1 [Compound 3, 4-({2-[(aminosulfonyl)amino]ethyl}amino)-N-[4-fluoro-3-(trifluoromethyl)phenyl]-N′-hydroxy-1,2,5-oxadiazole-3-carboximidamide]
IC50 [3]: < 0.1 µM
